Reference: patent publication US20090326007A1, “Compounds and methods for modulating sir2 protein activity” (priority 2007, published 2009)
“Also recorded” adds a separate entry of the source. Like-named read-outs stand apart in the source and are kept apart here. *1 amine or outer side, *2 acyl side, *3 side chain or, on linkers, in order; H or OH if unused. Where a SMILES comes first, the peptide text is derived from it. Bridges are numbered along the chain shown (N, C = ends). [ ]: non-standard residue; d: D form. X1 = CC(C)CCCCCCCCC[C@H](CC(=O)[*:1])O[*:2]

Assays:
full-length human SIRT1 = biological target: T1, full-length human SIRT1 (Homo sapiens, UniProt Q96EB6); assay: IC50 determination, fluorigenic deacetylase assay, FL SIRT1
T1 sequence (Q96EB6 1-747): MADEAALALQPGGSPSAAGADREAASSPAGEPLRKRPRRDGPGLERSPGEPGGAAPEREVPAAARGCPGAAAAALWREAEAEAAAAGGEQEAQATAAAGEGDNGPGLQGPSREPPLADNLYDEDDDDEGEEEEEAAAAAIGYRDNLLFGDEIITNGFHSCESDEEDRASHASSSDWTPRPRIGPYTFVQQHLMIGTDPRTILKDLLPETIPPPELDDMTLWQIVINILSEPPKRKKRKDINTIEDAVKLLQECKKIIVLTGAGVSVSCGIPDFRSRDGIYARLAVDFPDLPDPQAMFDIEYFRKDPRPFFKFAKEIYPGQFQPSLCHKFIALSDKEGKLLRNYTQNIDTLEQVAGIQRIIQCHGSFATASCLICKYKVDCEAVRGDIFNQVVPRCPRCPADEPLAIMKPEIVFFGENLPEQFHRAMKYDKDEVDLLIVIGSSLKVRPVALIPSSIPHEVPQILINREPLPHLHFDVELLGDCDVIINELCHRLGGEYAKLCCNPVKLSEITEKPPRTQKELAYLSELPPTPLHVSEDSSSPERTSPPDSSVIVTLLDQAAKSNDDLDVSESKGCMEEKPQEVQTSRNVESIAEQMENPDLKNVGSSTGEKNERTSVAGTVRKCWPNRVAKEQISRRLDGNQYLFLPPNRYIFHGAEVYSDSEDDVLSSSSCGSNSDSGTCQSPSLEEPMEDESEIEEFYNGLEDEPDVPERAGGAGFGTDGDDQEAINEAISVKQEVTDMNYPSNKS
Procedure: Cells were harvested and lysed by sonication in buffer containing 50 mM Tris, pH 7.5, 200 mM NaCl, 5 mM imidizole, 10 mM β-mercaptoethanol (BME) and 0.1 mg/mL PMSF. Soluble FL SIRT1 was purified by Ni-NTA (Qiagen, Valencia, Calif.) in a buffer containing 50 mM Tris, pH 7.5, 300 mM NaCl, 10 mM BME, 5% glycerol and 30-600 mM imidizole followed by SUPERDEX-200 gel filtration in buffer containing 50 mM Tris, pH 7.5, 150 mM NaCl, and 10 mM BME. FL SIRT1 eluted between the 670 kDa and 158 kDa globular protein standards. Since SIRT1 is known to aggregate after several days at 4° C., the protein was aliquoted and frozen at −80° C. for use in fluorigenic assays.
(§3) IC50 Determination. […] The dose-response curves were then fit to one-site competition or sigmoidal-dose response curves as appropriate in [sequence] PRISM (GraphPad Software, La Jolla, Calif.) and the IC50 was determined. Three independent IC50 measurements were performed for each compound and the average and standard deviation are reported.

Hst2 [1] = biological target: T2, Hst2 (Saccharomyces cerevisiae, UniProt P53686); assay: IC50 determination, fluorigenic deacetylase assay, Hst2
Procedure: as §3
The resulting deacetylase activity for the three experiments was averaged and reported as a percentage relative to control wells containing no inhibitor.

trypsin = assay: Control for inhibition of the trypsin assay developer; type: biochemical
Source text: These compounds were not pursued further.

yHst2 I117F mutant = biological target: T3, yHst2 I117F mutant (Saccharomyces cerevisiae, UniProt P53686, I117F); assay: Kinetic assay, deacetylase fluorescent activity assay kit, I117F mutant; type: biochemical; conditions: I117F mutant versus wild-type
T3 construct: Point mutations in yHst2 (1-294) were generated from the pRSET-A plasmid; His6 (N); made in house
Source text: (§1) Protein Preparation, Crystallization and Structure Determination.
(§2) Kinetic Assays. […] Data taken in triplicate were fitted to the equation l/v=(Km/Vmax)(1/[S])+1/Vmax, using a root mean least squares approach in the form of a double reciprocal Lineweaver-Burk plot where the x-intercept is equal to −l/Km. […] The slopes of the Dixon Plot were replotted versus 1/[NAD^+], and the slope of the corresponding line was set equal to Km/(Vmax*Ki), in order to calculate Ki.

Hst2 [2] = biological target: T2, Hst2; assay: Reversibility assay; type: biochemical; conditions: preincubation at 10x IC50, 100-fold dilution
Procedure: Reversibility Assay. Each of the inhibitor scaffolds identified in the HTS was tested to determine whether they were reversible, slowly reversible or irreversible inhibitors of Hst2. The reversibility of each compound was identified using the fluorigenic assay described herein.
To aid in the determination of the mechanism of inhibition for each newly identified inhibitor and to assay reversibly of inhibitor binding to the enzyme, it was tested whether or not inhibitor binding to the Sir2 enzyme was rapidly reversible, slowly reversible or irreversible. […] Then, the enzyme was diluted 100-fold into reaction wells with both substrates, and the amount of product formation over time was monitored (FIG. 2).

human SIRT2 = biological target: T4, human SIRT2 (Homo sapiens, UniProt Q8IXJ6); assay: Inhibition assay against human SIRT2 (fluorigenic)
T4 sequence (Q8IXJ6 1-352 isoform Q8IXJ6-2): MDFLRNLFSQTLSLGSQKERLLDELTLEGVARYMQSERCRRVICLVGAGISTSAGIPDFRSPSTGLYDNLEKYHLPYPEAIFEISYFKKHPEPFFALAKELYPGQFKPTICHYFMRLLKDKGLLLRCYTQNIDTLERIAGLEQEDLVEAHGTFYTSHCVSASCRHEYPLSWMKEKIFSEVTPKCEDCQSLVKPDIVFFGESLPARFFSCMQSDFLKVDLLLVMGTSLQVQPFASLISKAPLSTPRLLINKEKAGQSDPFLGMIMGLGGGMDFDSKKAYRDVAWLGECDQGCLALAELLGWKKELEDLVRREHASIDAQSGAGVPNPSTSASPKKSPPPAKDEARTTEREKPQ
Procedure: (§4) Human recombinant SIRT3 was purchased from Enzo Life Sciences.
(§5) Inhibition Assay Against Human SIRT2 and SIRT3. […] Two independent measurements were performed for each compound and the average and standard deviation are reported.

yHst2 I117V mutant = biological target: T5, yHst2 I117V mutant (Saccharomyces cerevisiae, UniProt P53686, I117V); assay: Kinetic assay, deacetylase fluorescent activity assay kit, I117V mutant; type: biochemical; conditions: I117V mutant versus wild-type
T5 construct: Point mutations in yHst2 (1-294) were generated from the pRSET-A plasmid; His6 (N); made in house
Source text: as §1, §2

human SIRT3 = biological target: T6, human SIRT3 (Homo sapiens, UniProt Q9NTG7); assay: Inhibition assay against human SIRT3 (fluorigenic)
T6 sequence (Q9NTG7 1-399): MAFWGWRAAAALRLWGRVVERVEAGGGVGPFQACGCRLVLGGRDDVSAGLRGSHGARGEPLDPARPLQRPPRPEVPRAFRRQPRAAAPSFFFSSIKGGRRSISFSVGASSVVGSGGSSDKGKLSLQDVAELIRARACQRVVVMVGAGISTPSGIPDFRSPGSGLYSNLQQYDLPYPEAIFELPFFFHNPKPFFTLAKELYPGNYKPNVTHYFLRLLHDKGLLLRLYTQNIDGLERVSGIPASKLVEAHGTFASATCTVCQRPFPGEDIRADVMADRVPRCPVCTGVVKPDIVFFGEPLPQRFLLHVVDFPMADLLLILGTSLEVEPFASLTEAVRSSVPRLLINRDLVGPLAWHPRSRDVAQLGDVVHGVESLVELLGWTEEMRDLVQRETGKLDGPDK
Procedure: as §4, §5

Hst2 [3] = biological target: T2, Hst2; assay: Competition assay (inhibition mode versus NAD+ and acetyl-lysine substrate); type: biochemical; conditions: for Ki: read-out: Ki
Procedure: Competition Assay. […] The fluorigenic assay described above was used with a fixed enzyme concentration of 1 μM. When competition with NAD^+ was being tested, the FLUOR DE LYS-SIRT1 deacetylase substrate was held at a constant concentration of 100 μM and the NAD^+ was titrated from ⅓-5× KmNAD+ (5-80 μM). […] The inhibitors were titrated from ˜½-several times their estimated Ki as indicated. The reaction time was 15 minutes, and each condition was tested in duplicate. The Km, kcat and kcat/Km values were determined by direct fit of the data in SIGMAPLOT (Systat Software, Point Richmond, Calif.) to the Michealis-Menten equation. The Ki and Kis (the slope and intercept inhibition constants, respectively) and the competition type were also determined by a direct fit in SIGMAPLOT to both partial and full competitive, noncompetitive, uncompetitive and mixed competition models. Best-fit models were determined by several statistical methods including R^2, AICs and Sy.x as well as empirical evaluation of α and β values.
To determine the mechanism of inhibition of the compounds identified by HTS and to gain insight as to where these compounds may bind to the enzyme, inhibition modes were determined by varying each of the substrates with the other maintained at a fixed, saturating concentration (Table 11).

[4] = read-out: Hst2 IC50, Table 5, 160 μM NAD+, 100 μM substrate, 1 μM Hst2, 15 min
[5] = 50 μM compound, relative to control without inhibitor

T2 sequence (P53686 1-294): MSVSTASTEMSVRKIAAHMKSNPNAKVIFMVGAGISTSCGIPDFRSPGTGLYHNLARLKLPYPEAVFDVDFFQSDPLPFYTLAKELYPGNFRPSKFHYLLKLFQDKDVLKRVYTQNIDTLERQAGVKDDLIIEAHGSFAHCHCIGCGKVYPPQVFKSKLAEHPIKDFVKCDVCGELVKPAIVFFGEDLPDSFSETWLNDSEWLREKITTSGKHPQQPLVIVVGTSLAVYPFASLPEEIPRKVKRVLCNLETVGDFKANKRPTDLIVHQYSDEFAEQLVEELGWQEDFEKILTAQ
T5 sequence (P53686 1-294 I117V): as the sequence (P53686 1-294) above, with I117V counted along it
T3 sequence (P53686 1-294 I117F): as the sequence (P53686 1-294) above, with I117F counted along it

Compound `CC(C)CCCCCCCCC[C@@H]1CC(=O)N[C@@H](CCC(=O)O)C(=O)N[C@@H](CC(C)C)C(=O)N[C@H](CC(C)C)C(=O)N[C@@H](C(C)C)C(=O)N[C@@H](CC(=O)O)C(=O)N[C@H](CC(C)C)C(=O)N[C@@H](CC(C)C)C(=O)O1` [Surfactin (7), Surfactin, reference compound] (EL[dL]VD[dL]L; linker N-C via X1) has an IC50 (full-length human SIRT1) greater than 600 µM and an IC50 (Hst2 [1]) greater than 700 µM.

With “Pyrido[2,3-a]4-nitropyrrolo[3,4-c]carbazole-5,7(6H)-dione) (cyclopentadienyl) monocarbonyl ruthenium [Compound 16a]” the inhibition of trypsin (trypsin) was “did not inhibit trypsin”, the IC50 (Hst2 [1]; Table 4, Hst2) was 36 ± 12 µM and the “IC50 values (range in words)” value (Hst2 [1]; Table 5) was “low micromolar”. The IC50 (Hst2 [1]; [4]) was 36 ± 12 µM.

With `NC(=O)c1cccnc1` [Nicotinamide (1), Nicotinamide, reference compound] the “increase of Kii for nicotinamide over wild-type enzyme” value (yHst2 I117F mutant) was roughly 6 fold, the “slope of progress curve with respect to the enzyme control” value (Hst2 [2]) was 30% and the remaining activity at 100 µM (human SIRT2; read-out: percent of residual enzyme activity, SIRT2) was 26 ± 1.4%. For the same compound, the “decrease of Kii for nicotinamide over wild-type enzyme” value (yHst2 I117V mutant) was roughly 2.5 fold.

In the case of “(Pyrido[2,3-a]5-nitropyrrolo[3,4-c]carbazole-5,7(6H)-dione) (cyclopentadienyl)monocarbonyl ruthenium [Compound 16b]”, the inhibition of trypsin (trypsin) is reported as “did not inhibit trypsin”, the IC50 (Hst2 [1]; Table 4, Hst2) is reported as 24 ± 16 µM and the “IC50 values (range in words)” value (Hst2 [1]; Table 5) is reported as “low micromolar”. It also gave an IC50 (Hst2 [1]; [4]) of 24 ± 16 µM.

hexachlorophene [Compound 14a] was tested, and the “percent of residual enzyme activity, SIRT3” value (human SIRT3; [5]) was 39.5 ± 1.6%, the potency estimated from few doses (human SIRT3; read-out: apparent IC50, SIRT3, estimated from single concentration) was less than 50 µM and the “percent of residual enzyme activity, SIRT2” value (human SIRT2; [5]) was 18.5 ± 0.8%. The potency estimated from few doses (human SIRT2; read-out: apparent IC50, SIRT2, estimated from single concentration) was less than 50 µM, the kcat (Hst2 [3]; substrate NAD+ varied) was 0.00933 ± 0.0013 s⁻¹ and the “Inhibition Mechanism” value (Hst2 [3]; substrate NAD+ varied, acetyl-lysine substrate 100 μM) was “fully non-competitive; also recorded: NC (full)”. The Ki (Hst2 [3]; substrate NAD+ varied) was 3.9 ± 0.7 µM, the kcat (Hst2 [3]; substrate acetyl-lysine varied) was 0.0222 ± 0.0015 s⁻¹ and the “Inhibition Mechanism” value (Hst2 [3]; substrate acetyl-lysine varied, NAD+ 160 μM) was “fully mixed”. The Ki (Hst2 [3]; substrate acetyl-lysine varied) was 2.5 ± 1 µM, the “α (mixed inhibition model)” value (Hst2 [3]; with respect to the acetyl-lysine substrate) was 13.4 and the IC50 (full-length human SIRT1; read-out: SIRT1 IC50, Table 5, 240 μM NAD+, 200 μM substrate, 1 μM FL SIRT1, 15 min) was 34 ± 10 µM. For the same compound, the IC50 (Hst2 [1]; Table 4, Hst2) was 12.5 ± 0.6 µM, the “IC50 values (range in words)” value (Hst2 [1]; Table 5) was “low micromolar” and the IC50 (Hst2 [1]; [4]) was 12.5 ± 0.6 µM.
